One block for each molecule: values may come before it.
Legend:
[1] = test system: BP63 (DNA, aptamer) CCGGTGGGTGGTCAGGTGGGATAGCGTTCCGCGTATGGCCCAGCGCATCACGGGTTCGCACCA; assay: ITC; conditions: 100 mM NaCl, 25 mM KCl, 10 mM MgCl2; 25 mM Tris-HCl pH 8.0, 2% DMSO; 200 μM BPA into 20 μM aptamer
[2] = test system: BP55 (DNA, aptamer) CCGCCGTTGGTGTGGTGGGCCTAGGGCCGGCGGCGCACAGCTGTTATAGACGTCT; assay: ITC; conditions: 100 mM NaCl, 25 mM KCl, 10 mM MgCl2; 25 mM Tris-HCl pH 8.0, 2% DMSO; 500 μM BPA into 30 μM aptamer
[3] = test system: BP50 (DNA, aptamer) CCGCCGTTGGTGTGGTGGGCCTAGGGCCGGCGGCGCACAGCTGTTATAGA; assay: ITC; conditions: 100 mM NaCl, 25 mM KCl, 10 mM MgCl2; 25 mM Tris-HCl pH 8.0, 2% DMSO; 500 μM BPA into 30 μM aptamer
[4] = test system: BP45 (DNA, aptamer) CCGCCGTTGGTGTGGTGGGCCTAGGGCCGGCGGCGCACAGCTGTT; assay: ITC; conditions: 100 mM NaCl, 25 mM KCl, 10 mM MgCl2; 25 mM Tris-HCl pH 8.0, 2% DMSO; 500 μM BPA into 30 μM aptamer
[5] = test system: BP40 (DNA, aptamer) CCGCCGTTGGTGTGGTGGGCCTAGGGCCGGCGGCGCACAG; assay: ITC; conditions: 100 mM NaCl, 25 mM KCl, 10 mM MgCl2; 25 mM Tris-HCl pH 8.0, 2% DMSO; 500 μM BPA into 30 μM aptamer
[6] = test system: BP35 (DNA, aptamer) CCGCCGTTGGTGTGGTGGGCCTAGGGCCGGCGGCG; assay: ITC; conditions: 100 mM NaCl, 25 mM KCl, 10 mM MgCl2; 25 mM Tris-HCl pH 8.0, 2% DMSO; 500 μM BPA into 30 μM aptamer
[7] = test system: BP34 (DNA, aptamer) CGCCGTTGGTGTGGTGGGCCTAGGGCCGGCGGCG; assay: ITC; conditions: 100 mM NaCl, 25 mM KCl, 10 mM MgCl2; 25 mM Tris-HCl pH 8.0, 2% DMSO; 500 μM BPA into 30 μM aptamer
[8] = test system: BP33 (DNA, aptamer) CCGCCGTTGGTGTGGTGGGCCTAGGGCCGGCGG; assay: ITC; conditions: 100 mM NaCl, 25 mM KCl, 10 mM MgCl2; 25 mM Tris-HCl pH 8.0, 2% DMSO; 500 μM BPA into 30 μM aptamer
[9] = test system: BP31 (DNA, aptamer) CGCCGTTGGTGTGGTGGGCCTAGGGCCGGCG; assay: ITC; conditions: 100 mM NaCl, 25 mM KCl, 10 mM MgCl2; 25 mM Tris-HCl pH 8.0, 2% DMSO; 500 μM BPA into 30 μM aptamer
[10] = test system: BP29 (DNA, aptamer) GCCGTTGGTGTGGTGGGCCTAGGGCCGGC; assay: ITC; conditions: 100 mM NaCl, 25 mM KCl, 10 mM MgCl2; 25 mM Tris-HCl pH 8.0, 2% DMSO; 500 μM BPA into 30 μM aptamer
[11] = test system: BP27 (DNA, aptamer) CCGTTGGTGTGGTGGGCCTAGGGCCGG; assay: ITC; conditions: 100 mM NaCl, 25 mM KCl, 10 mM MgCl2; 25 mM Tris-HCl pH 8.0, 2% DMSO; 500 μM BPA into 30 μM aptamer
[12] = test system: BP25 (DNA, aptamer) CGTTGGTGTGGTGGGCCTAGGGCCG; assay: ITC; conditions: 100 mM NaCl, 25 mM KCl, 10 mM MgCl2; 25 mM Tris-HCl pH 8.0, 2% DMSO; 500 μM BPA into 30 μM aptamer
[13] = test system: BP33-9GT (DNA, aptamer) CCGCCGTTTGTGTGGTGGGCCTAGGGCCGGCGG; assay: ITC; conditions: 100 mM NaCl, 25 mM KCl, 10 mM MgCl2; 25 mM Tris-HCl pH 8.0, 2% DMSO; 500 μM BPA into 30 μM aptamer
[14] = test system: BP33-10GT (DNA, aptamer) CCGCCGTTGTTGTGGTGGGCCTAGGGCCGGCGG; assay: ITC; conditions: 100 mM NaCl, 25 mM KCl, 10 mM MgCl2; 25 mM Tris-HCl pH 8.0, 2% DMSO; 500 μM BPA into 30 μM aptamer
[15] = test system: BP33-12GT (DNA, aptamer) CCGCCGTTGGTTTGGTGGGCCTAGGGCCGGCGG; assay: ITC; conditions: 100 mM NaCl, 25 mM KCl, 10 mM MgCl2; 25 mM Tris-HCl pH 8.0, 2% DMSO; 500 μM BPA into 30 μM aptamer
[16] = test system: BP33-14GT (DNA, aptamer) CCGCCGTTGGTGTTGTGGGCCTAGGGCCGGCGG; assay: ITC; conditions: 100 mM NaCl, 25 mM KCl, 10 mM MgCl2; 25 mM Tris-HCl pH 8.0, 2% DMSO; 500 μM BPA into 30 μM aptamer
[17] = test system: BP33-15GT (DNA, aptamer) CCGCCGTTGGTGTGTTGGGCCTAGGGCCGGCGG; assay: ITC; conditions: 100 mM NaCl, 25 mM KCl, 10 mM MgCl2; 25 mM Tris-HCl pH 8.0, 2% DMSO; 500 μM BPA into 30 μM aptamer
[18] = test system: BP33-17GT (DNA, aptamer) CCGCCGTTGGTGTGGTTGGCCTAGGGCCGGCGG; assay: ITC; conditions: 100 mM NaCl, 25 mM KCl, 10 mM MgCl2; 25 mM Tris-HCl pH 8.0, 2% DMSO; 500 μM BPA into 30 μM aptamer
[19] = test system: BP33-18GT (DNA, aptamer) CCGCCGTTGGTGTGGTGTGCCTAGGGCCGGCGG; assay: ITC; conditions: 100 mM NaCl, 25 mM KCl, 10 mM MgCl2; 25 mM Tris-HCl pH 8.0, 2% DMSO; 500 μM BPA into 30 μM aptamer
[20] = test system: BP33-25GT (DNA, aptamer) CCGCCGTTGGTGTGGTGGGCCTAGTGCCGGCGG; assay: ITC; conditions: 100 mM NaCl, 25 mM KCl, 10 mM MgCl2; 25 mM Tris-HCl pH 8.0, 2% DMSO; 500 μM BPA into 30 μM aptamer
[21] = test system: BP33-26GT (DNA, aptamer) CCGCCGTTGGTGTGGTGGGCCTAGGTCCGGCGG; assay: ITC; conditions: 100 mM NaCl, 25 mM KCl, 10 mM MgCl2; 25 mM Tris-HCl pH 8.0, 2% DMSO; 500 μM BPA into 30 μM aptamer
[22] = test system: BP33-stem-6GT (DNA, aptamer) CCGCCTTTGGTGTGGTGGGCCTAGGGCCGGCGG; assay: ITC; conditions: 100 mM NaCl, 25 mM KCl, 10 mM MgCl2; 25 mM Tris-HCl pH 8.0, 2% DMSO; 500 μM BPA into 30 μM aptamer
[23] = test system: BP33-stem-29GT (DNA, aptamer) CCGCCGTTGGTGTGGTGGGCCTAGGGCCTGCGG; assay: ITC; conditions: 100 mM NaCl, 25 mM KCl, 10 mM MgCl2; 25 mM Tris-HCl pH 8.0, 2% DMSO; 500 μM BPA into 30 μM aptamer
[24] = test system: BP33-stem-30GT (DNA, aptamer) CCGCCGTTGGTGTGGTGGGCCTAGGGCCGTCGG; assay: ITC; conditions: 100 mM NaCl, 25 mM KCl, 10 mM MgCl2; 25 mM Tris-HCl pH 8.0, 2% DMSO; 500 μM BPA into 30 μM aptamer
[25] = test system: BP33-7TA (DNA, aptamer) CCGCCGATGGTGTGGTGGGCCTAGGGCCGGCGG; assay: ITC; conditions: 100 mM NaCl, 25 mM KCl, 10 mM MgCl2; 25 mM Tris-HCl pH 8.0, 2% DMSO; 500 μM BPA into 30 μM aptamer
[26] = test system: BP33-8TA (DNA, aptamer) CCGCCGTAGGTGTGGTGGGCCTAGGGCCGGCGG; assay: ITC; conditions: 100 mM NaCl, 25 mM KCl, 10 mM MgCl2; 25 mM Tris-HCl pH 8.0, 2% DMSO; 500 μM BPA into 30 μM aptamer
[27] = test system: BP33-11TA (DNA, aptamer) CCGCCGTTGGAGTGGTGGGCCTAGGGCCGGCGG; assay: ITC; conditions: 100 mM NaCl, 25 mM KCl, 10 mM MgCl2; 25 mM Tris-HCl pH 8.0, 2% DMSO; 500 μM BPA into 30 μM aptamer
[28] = test system: BP33-13TA (DNA, aptamer) CCGCCGTTGGTGAGGTGGGCCTAGGGCCGGCGG; assay: ITC; conditions: 100 mM NaCl, 25 mM KCl, 10 mM MgCl2; 25 mM Tris-HCl pH 8.0, 2% DMSO; 500 μM BPA into 30 μM aptamer
[29] = test system: BP33-16TA (DNA, aptamer) CCGCCGTTGGTGTGGAGGGCCTAGGGCCGGCGG; assay: ITC; conditions: 100 mM NaCl, 25 mM KCl, 10 mM MgCl2; 25 mM Tris-HCl pH 8.0, 2% DMSO; 500 μM BPA into 30 μM aptamer
[30] = test system: BP33-22TA (DNA, aptamer) CCGCCGTTGGTGTGGTGGGCCAAGGGCCGGCGG; assay: ITC; conditions: 100 mM NaCl, 25 mM KCl, 10 mM MgCl2; 25 mM Tris-HCl pH 8.0, 2% DMSO; 500 μM BPA into 30 μM aptamer
[31] = test system: BP33-20CA (DNA, aptamer) CCGCCGTTGGTGTGGTGGGACTAGGGCCGGCGG; assay: ITC; conditions: 100 mM NaCl, 25 mM KCl, 10 mM MgCl2; 25 mM Tris-HCl pH 8.0, 2% DMSO; 500 μM BPA into 30 μM aptamer
[32] = test system: BP33-21CA (DNA, aptamer) CCGCCGTTGGTGTGGTGGGCATAGGGCCGGCGG; assay: ITC; conditions: 100 mM NaCl, 25 mM KCl, 10 mM MgCl2; 25 mM Tris-HCl pH 8.0, 2% DMSO; 500 μM BPA into 30 μM aptamer
[33] = test system: BP33-27CA (DNA, aptamer) CCGCCGTTGGTGTGGTGGGCCTAGGGACGGCGG; assay: ITC; conditions: 100 mM NaCl, 25 mM KCl, 10 mM MgCl2; 25 mM Tris-HCl pH 8.0, 2% DMSO; 500 μM BPA into 30 μM aptamer
[34] = test system: BP33-23AT (DNA, aptamer) CCGCCGTTGGTGTGGTGGGCCTTGGGCCGGCGG; assay: ITC; conditions: 100 mM NaCl, 25 mM KCl, 10 mM MgCl2; 25 mM Tris-HCl pH 8.0, 2% DMSO; 500 μM BPA into 30 μM aptamer
[35] = test system: BP29-3'-MB (DNA, aptamer) GCCGTTGGTGTGGTGGGCCTAGGGCCGGC; assay: square wave voltammetry, aptamer-modified gold electrode; conditions: 100 mM NaCl, 25 mM KCl, 10 mM MgCl2, 25 mM Tris-HCl pH 8.0
[36] = 100 μM tested, no remarkable current change

binding [1]: no
Kd [2]: 11.6 ± 1.0 µM
Kd [3]: 9.5 ± 0.5 µM
Kd [4]: 12.5 ± 0.8 µM
Kd [5]: 15.4 ± 0.9 µM
Kd [6]: 20.2 ± 1.0 µM
Kd [7]: 307 ± 249 µM
Kd [8]: 10.5 ± 1.5 µM
Kd [9]: 13.4 ± 1.5 µM
Kd [10]: 12.4 ± 3.4 µM
Kd [11]: 56 ± 9.0 µM
binding [12]: no
binding [13]: no
binding [14]: no
binding [15]: no
binding [16]: no
binding [17]: no
binding [18]: no
binding [19]: no
binding [20]: no
binding [21]: no
binding [22]: no
binding [23]: no
Kd [24]: 51.2 ± 10.4 µM
Kd [25]: 68.4 ± 4.9 µM
binding [26]: no
Kd [27]: 24.4 ± 1.8 µM
Kd [28]: 22.6 ± 6.9 µM
Kd [29]: 24.4 ± 1.6 µM
Kd [30]: 15.2 ± 0.9 µM
Kd [31]: 14.6 ± 0.9 µM
Kd [32]: 10.5 ± 0.7 µM
Kd [33]: 16.0 ± 2.2 µM
binding [34]: no
binding ([35]; current increased 88% at 500 μM BPA): yes
Structure (SMILES): CC(C)(c1ccc(O)cc1)c1ccc(O)cc1

binding [35, 36]: no
Structure (SMILES): Oc1ccc(-c2ccc(O)cc2)cc1

More lines, now with the values behind:

Structure (SMILES): CN(C)[C@@H]1C(=O)C(C(N)=O)=C(O)[C@@]2(O)C(=O)C3=C(O)c4c(O)cccc4[C@@](C)(O)[C@H]3C[C@@H]12
binding [35, 36]: no

Structure (SMILES): CN(C)[C@@H]1C(=O)C(C(N)=O)=C(O)[C@@]2(O)C(=O)C3=C(O)c4c(O)cccc4[C@@](C)(O)[C@H]3[C@H](O)[C@@H]12
binding [35, 36]: no

Structure (SMILES): O=S(=O)(c1ccc(O)cc1)c1ccc(O)cc1
binding [35, 36]: no

Source: article PMC9688307 (2022)
